Measured values published in US12409209B2, “Biological function regulating agent, epidermal metabolism promoting agent, fat accumulation inhibiting agent, fat decomposition promoting agent, adiponectin production promoting agent, functional food, cosmetic product, and method for producing biological function regulating agent” (NITTA GELATIN INC., priority 2020, dated 2025).

Legend:
[1] = system: fat cells differentiated from mouse-derived precursor fat cells (3T3-L1); experiment: Eleventh test: fat accumulation in fat cells (Oil Red O); type: cell-based; settings: positive control, final conc. 2 ug/mL; 3T3-L1 7 passages, 13 PDL
Protocol: The mouse-derived precursor fat cells (manufactured by Research Resources Bank, Resource No. JCRB 9014, Lot No. 01282009) were precultured in a culture medium (DMEM/F12 medium (passage culture, catalog No: “11330-032”, manufactured by Gibco Company, containing 10 mass % FBS, penicillin and streptomycin). Subsequently, from the medium and the cells subjected to the preculture, a cell suspension liquid containing the cells at 3×10^4 cells/mL was prepared. Further, 5 mL of the cell suspension liquid was seeded in each of 60 mm dishes (catalog No: Corning, Cat. No. 430166) (1.5×10^5 cells/dish), and cultured for 2 days under the condition of 37° C. (5 vol % CO2). […] 200 μL of the extraction liquid was transferred to a 96-well plate, and the absorbance at OD 520 nm was measured with an absorption spectrometer (trade name: “Synergy HTX” manufactured by Biotech Japan Corporation). It is evaluated that the higher the value of the absorbance at OD 520 nm, the more likely the fat accumulation is to occur in fat cells. […] The fat accumulation ratio in fat cells containing each sample, the berberine chloride solution or RO water was determined in accordance with the following calculation expression. Fat accumulation ratio (%)=[(measured value at OD 520 nm for each sample)/(measured value at OD 520 nm for blank)×100] […]

[2] = system: fat cells differentiated from mouse-derived precursor fat cells (3T3-L1); experiment: Third test: fat accumulation in fat cells (Oil Red O, OD 520 nm); type: cell-based; settings: positive control, final conc. 2 μg/mL; 3T3-L1 5 passages, 9 PDL; average of three
Protocol: Specifically, the third test was conducted in accordance with the following procedure. The mouse-derived precursor fat cells (manufactured by Research Resources Bank, Resource No. JCRB 9014, Lot No. 01282009) were precultured in a culture medium (DMEM/F12 medium (passage culture, catalog No: “11330-032”, manufactured by Gibco Company, containing 10 mass % FBS, penicillin and streptomycin). Subsequently, from the medium and the cells subjected to the preculture, a cell suspension liquid containing the cells at 3×10^4 cells/mL was prepared. Further, 5 mL of the cell suspension liquid was seeded in each of 60 mm dishes (catalog No: Corning, Cat. No. 430166) (1.5×10^5 cells/dish), and cultured for 2 days under the condition of 37° C. (5 vol % CO2). […] 200 μL of the extraction liquid was transferred to a 96-well plate, and the absorbance at OD 520 nm was measured with an absorption spectrometer (trade name: “Synergy HTX” manufactured by Biotech Japan Corporation). It is evaluated that the higher the value of the absorbance at OD 520 nm, the more likely the fat accumulation is to occur in fat cells. […] The fat accumulation ratio in fat cells containing each sample, the berberine chloride solution or RO water was determined in accordance with the following calculation expression. […]

## COc1ccc2cc3[n+](cc2c1OC)CCc1cc2c(cc1-3)OCO2 [Berberine chloride, berberine chloride]
[1]
  Fat accumulation ratio, Ave (Blank = 100): 60%
[2]
  Fat accumulation ratio, Ave (Blank = 100): 37%
